Blank lines part the entries; values can stand above or below the substance they belong to.
Experiments:
[1] = target: T1, IL-2 receptor alpha beta gamma (Homo sapiens, UniProt P01589+P14784+P31785); test: PathHunter IL-2 Cytokine Receptor agonist assay, alpha beta gamma; format: cell-based; conditions: U2OS PathHunter cells with IL-2Ralpha; mass of IL-2 polypeptide only, without mPEG or linker
T1 construct: host or cells: U2OS (PathHunter)
T1 sequence (P01589 22-272): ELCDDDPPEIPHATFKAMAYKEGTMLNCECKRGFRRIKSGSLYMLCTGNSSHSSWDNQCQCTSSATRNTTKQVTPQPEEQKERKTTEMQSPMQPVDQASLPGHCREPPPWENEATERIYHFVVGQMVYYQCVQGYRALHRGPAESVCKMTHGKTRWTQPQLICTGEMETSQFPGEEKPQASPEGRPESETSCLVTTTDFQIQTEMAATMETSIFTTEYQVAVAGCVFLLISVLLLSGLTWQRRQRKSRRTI
T1 sequence (P14784 27-551): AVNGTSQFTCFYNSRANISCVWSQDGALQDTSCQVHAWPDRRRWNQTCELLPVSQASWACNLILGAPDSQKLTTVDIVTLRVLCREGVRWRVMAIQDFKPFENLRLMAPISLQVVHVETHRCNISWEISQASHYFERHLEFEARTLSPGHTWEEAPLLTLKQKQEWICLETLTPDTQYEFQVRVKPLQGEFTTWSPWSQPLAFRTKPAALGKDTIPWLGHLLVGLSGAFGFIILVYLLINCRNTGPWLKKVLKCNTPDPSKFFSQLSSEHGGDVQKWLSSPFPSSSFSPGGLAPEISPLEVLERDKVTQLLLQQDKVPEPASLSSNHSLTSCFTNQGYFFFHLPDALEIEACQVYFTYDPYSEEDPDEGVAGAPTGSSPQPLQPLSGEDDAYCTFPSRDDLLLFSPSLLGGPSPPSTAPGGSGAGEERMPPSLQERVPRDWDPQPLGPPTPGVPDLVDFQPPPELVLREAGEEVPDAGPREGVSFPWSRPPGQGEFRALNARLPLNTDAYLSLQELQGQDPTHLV
T1 sequence (P31785 23-369): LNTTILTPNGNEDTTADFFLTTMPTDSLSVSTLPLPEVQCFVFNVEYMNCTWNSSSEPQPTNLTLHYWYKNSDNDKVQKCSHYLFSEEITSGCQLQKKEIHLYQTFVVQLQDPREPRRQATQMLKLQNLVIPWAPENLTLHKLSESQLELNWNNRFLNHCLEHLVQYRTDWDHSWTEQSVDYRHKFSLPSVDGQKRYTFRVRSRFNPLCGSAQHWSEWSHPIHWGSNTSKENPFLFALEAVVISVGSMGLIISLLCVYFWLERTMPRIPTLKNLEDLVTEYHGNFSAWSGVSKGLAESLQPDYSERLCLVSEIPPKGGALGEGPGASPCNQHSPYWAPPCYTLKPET
Protocol: (§1) For example, the compounds labelled “D20_30” in this example is the compound having SEQ ID NO: 4 in which the structure of Formula (II), Formula (III), or a mixture of Formula (II) and (III) was substituted at the D20 residue (SEQ ID NO: 67) with a PEG group having a molecular weight of 30 kDa. Similarly, the following compounds were tested in this Example:
(§2) A second cell line was engineered to express the IL-2Ralpha subunit.
(§3) PathHunter cell lines were expanded from freezer stocks according to standard procedures. Cells were seeded in a total volume of 20 μL into white walled, 384-well microplates and incubated for the appropriate time prior to testing. […] Intermediate dilution of sample stocks was performed to generate 5× sample in assay buffer. About 5 μL of 5× sample was added to cells and incubated at 37° C. for a period of from 6 hours to 16 hours depending on the assay. Vehicle concentration was 1%. […] For some assays, activity was detected using a high sensitivity detection reagent (PathHunter Flash Kit) to improve assay performance. […] Microplates were read following signal generation with a PerkinElmer Envision instrument for chemiluminescent signal detection.
(§4) Compound activity was analyzed using CBIS data analysis suite software (ChemInnovation, CA).

IL-2 receptor beta gamma = target: T2, IL-2 receptor beta gamma (Homo sapiens, UniProt P14784+P31785); test: PathHunter IL-2 Cytokine Receptor agonist assay, beta gamma; format: cell-based; conditions: U2OS PathHunter cells IL-2Rbeta/gamma; mass of IL-2 polypeptide only, without mPEG or linker
T2 construct: host or cells: U2OS (PathHunter)
T2 sequence (P14784 27-551): T1 sequence (P14784 27-551)
T2 sequence (P31785 23-369): T1 sequence (P31785 23-369)
Protocol: as §1, §2, §3, §4

[2] = test system: white blood cell count (WBC), lymphocyte count; test: Hematology after single subcutaneous dose in Cynomolgus monkeys; format: in vivo, Cynomolgus monkey
Description: Each of the conjugates described below, except H16_30 kDa and H16_50 kDa, had SEQ ID NO: 4 in which the indicated amino acid position is substituted with the structure of Formula (II), Formula (III), or a mixture of Formula (II) and (III), and they contain a PEG chain of the indicated size. For example, the variant labeled “L19_30 kDa” has SEQ ID NO: 4 in which the amino acid at position L19 is replaced by the structure of Formula (II), Formula (III), or a mixture of Formula (II) and (III), and contains a 30 kDa, linear mPEG group. For the H16_30 kDa and H16_50 kDa variants, the compounds had SEQ ID NO: 4 in which the indicated amino acid position is substituted with the structure of Formula (IV), Formula (V), or a mixture of Formula (IV) and […] a linear, mPEG group having a molecular weight of 30 kDa or 50 kDa, respectively.
Blood samples were taken from each animal at the following time points: Samples for hematology: Day −1, Day 1 (Predose), 3, 6, 10, 15 and 22. Samples for pharmacokinetics and pharmacodynamics: (Predose), 0.5, 1, 2, 4, 8, 24, 36, 48, 72, 96, 120, 144, 168, and 240, 360, 528 (Day 22) hours post-dose. Cytokine sample collection and analysis: Day −1, and Day 1 (Predose), 8, 24, 72, 120 and 168, 360, and 528 (Day 22) hours post-dose.

CTLL-2 = CTLL-2 proliferation; format: cell-based; conditions: mouse CTLL-2
Description: FIG. 4A-FIG. 4B show the dose response curves for pSTAT5 signaling in human LRS primary cell (FIG. 4A) and proliferation response in mouse CTLL-2 populations (FIG. 4B).

NK cells = test: pSTAT5 signaling in human LRS-derived PBMC samples, NK cells (flow cytometry); format: cell-based; conditions: from MFI plots
Protocol: (§5) Conjugates of Table 3 were synthesized by modification of SEQ ID NO. 1.
(§6) These studies were performed at PrimityBio LLC (Fremont, CA).

CD8+ Tcells = test: pSTAT5 signaling in human LRS-derived PBMC samples, CD8+ T cells (flow cytometry); format: cell-based; conditions: from MFI plots
Protocol: as §5, §6

Treg cells = test: pSTAT5 signaling in human LRS-derived PBMC samples, Treg cells (flow cytometry); format: cell-based; conditions: for Fold increase in Treg EC50 vs native IL-2: compared to native IL-2 run in each individual experiment; for Treg cells, dose response EC50 for pSTAT5 signaling: human LRS samples, from MFI plots; for CD8+/Treg ratio: ratio of pSTAT5 EC50, human LRS samples
Protocol: as §5, §6

[3] = cited from earlier work

Alpha beta gamma EC50 [1]: 3.3 ng/mL | Beta gamma EC50 (IL-2 receptor beta gamma): 5742 ng/mL
Substance: H16_30kDa: SEQ ID NO: 4 with Formula (II), (III) or mixture at H16 (SEQ ID NO: 65), linear mPEG 30 kDa

NK cells, dose response EC50 for pSTAT5 signaling (NK cells): 20537 pg/ml | CD8+ Tcells, dose response EC50 for pSTAT5 signaling (CD8+ Tcells): 102255 pg/ml | Fold increase in Treg EC50 vs native IL-2 (Treg cells): 3 | Treg cells, dose response EC50 for pSTAT5 signaling (Treg cells): 142 pg/ml
Substance: V91K: IL-2 variant of Table 3 labelled V91K, no PEG size given [reference compound]
CTLL-2 proliferation EC50 (CTLL-2): 0.0995 ng/mL | CD8+/Treg ratio (Treg cells): 720

The remaining lines, values behind:

Substance: L19_30kDa: SEQ ID NO: 4 with Formula (II), (III) or mixture at L19 (SEQ ID NO: 66), 30 kDa linear mPEG
Date at the peak of lymphocytes ([2]; 0.03 mg/kg single subcutaneous dose): 6 days post | Date at the peak of lymphocytes ([2]; 0.16 mg/kg single subcutaneous dose): 6 days post

Substance: N88R: IL-2 variant of Table 3 labelled N88R, no PEG size given [reference compound]
CTLL-2 proliferation EC50 (CTLL-2): 0.363 ng/mL | NK cells, dose response EC50 for pSTAT5 signaling (NK cells): 2312847 pg/ml | CD8+ Tcells, dose response EC50 for pSTAT5 signaling (CD8+ Tcells): 15025734 pg/ml | Fold increase in Treg EC50 vs native IL-2 (Treg cells): 148 | Treg cells, dose response EC50 for pSTAT5 signaling (Treg cells): 11082 pg/ml | CD8+/Treg ratio (Treg cells): 1356

Substance: N88_30kDa: SEQ ID NO: 4 with Formula (II), (III) or mixture at N88 (SEQ ID NO: 70), linear mPEG 30 kDa
Date at the peak of lymphocytes ([2]; 0.37 mg/kg single subcutaneous dose): 6 days post

Substance: human transferrin: 679 amino acid polypeptide that is about 80 kDa in size
half-life [3]: 170 to 288 h

Reference: US12234271B2 (Synthorx, Inc., priority 2019, dated 2025)
